Values of other authors as cited in PMC10846240, “Pharmacokinetic/pharmacodynamic integration of amphenmulin: a novel pleuromutilin derivative against Mycoplasma gallisepticum” (Microbiology Spectrum, 2023).
≈ marks a conversion by molar mass, not a printed value.

Legend:
[1] = set-up: method as in PMID 26747098; conditions: after intravenous injection; cited from earlier work
Staphylococcus aureus = tested on: Staphylococcus aureus; set-up: method as in PMID 30019769; conditions: neutropenic murine thigh and lung infection model; cited from earlier work
Streptococcus pneumoniae = tested on: Streptococcus pneumoniae; set-up: method as in PMID 30019769; conditions: neutropenic murine thigh and lung infection model; cited from earlier work
[2] = tested on: M. gallisepticum S6 strain; set-up: method as in PMID 27656647; conditions: same strain (S6); cited from earlier work
M. gallisepticum = tested on: M. gallisepticum; set-up: method as in PMID 27656647, PMID 25845865; conditions: intratracheal infection model; cited from earlier work

Compound	free drug concentration in pulmonary epithelial lining fluid relative to plasma [1]	character of activity (Staphylococcus aureus)	character of activity (Streptococcus pneumoniae)	MIC [2]	optimized therapeutic dosages (M. gallisepticum)	parameter most relevant to anti-mycoplasma effect (M. gallisepticum)
C=C[C@]1(C)C[C@@H](OC(=O)CS[C@@H]2CC[C@@H](N)C[C@H]2O)[C@]2(C)[C@H](C)CC[C@]3(CCC(=O)[C@H]32)[C@@H](C)[C@@H]1O [lefamulin]	5.7 times	time- and concentration-dependent activity	time- and concentration-dependent activity	–	–	–
C=C[C@]1(C)C[C@@H](OC(=O)CSCCN(CC)CC)[C@]2(C)[C@H](C)CC[C@]3(CCC(=O)[C@H]32)[C@@H](C)[C@@H]1O [tiamulin]	–	–	–	0.03 µg/mL (≈ 0.0608 µM)	45 mg/kg	AUC/MIC
C=C[C@]1(C)C[C@@H](OC(=O)CSC(C)(C)CNC(=O)[C@H](N)C(C)C)[C@]2(C)[C@H](C)CC[C@]3(CCC(=O)[C@H]32)[C@@H](C)[C@@H]1O [valnemulin]	–	–	–	–	6.5 mg/kg	AUC/MIC
